The values that follow come from patent publication US5880258A (dated 1999).

“Also recorded” adds a separate entry of the source. *1 amine or outer side, *2 acyl side, *3 side chain or, on linkers, in order; H or OH if unused. Where a SMILES comes first, the peptide text is derived from it. Where no end group is shown, it is not given here. [ ]: non-standard residue; d: D form. sY = N[C@@H](Cc1ccc(OS(=O)(=O)O)cc1)C(=O)O; Suc = O=C(CCC(=O)[*:2])[*:1]

In data set [1] the target is T1, thrombin (Homo sapiens, UniProt P00734). Nature of the data set: Inhibitory action against thrombin induced death. It counts as in vivo, mice. Conditions: score 0 normal, 1 loss of roll over reflection, 2 death within 20 minutes. The method, then:
To male mice (20-25 g), in non-anaesthesia, thrombin (15 NIH units/10 g) was administered intravenously, and the anti-thrombin activity of the tested compound was evaluated by observing the disappearance of roll over reflection and death as indexes. All the tested compounds were dissolved in saline and 0.05 ml/10 g were administered intravenously 5 min prior to the thrombin injection.

Data set [2] can be described thus: Prolongation of bleeding time (tail vein puncture wound). It counts as in vivo. The following applies: wound 5 minutes after administration, male mice. The method, then: Samples were injected into male mice (20-25 g) via their tail vein under anaesthesia using pentobarbital (40 mg/kg i.p.). A puncture wound was made by inserting a 21G needle (outer diameter 0.85 mm) into the other side of the tail vein 5 minutes after administration of test compounds, and the bleeding time of the wound was measured.
A filter paper was put on the wound with changes every 15 seconds. Bleeding time is defined as the time required until no red spot is observed on the filter paper.

The target in data set [3] is T1, thrombin. Description: anti-thrombin activity; clotting assay (coagulation time with fibrinogen as substrate). It counts as biochemical. More on the design: 100 μl of human-thrombin prepared at 10 NIH units/ml in aforesaid buffer.
Another data set concerns α-chymotrypsin. Description: α-chymotrypsin in 0.1M sodium-phoshate buffer (pH7.0). Conditions: 37° C., up to 24 hours.
For data set [4], the system named is V8 protease (product of Sigma). Nature of the data set: V8 protease in 0.1M sodium-phoshate buffer (pH7.0). Conditions: 37° C., up to 1 hour.
Data set [5] relates to carboxypeptidase Y (product of Boehringer Mannheim). Nature of the data set: carboxypeptidase Y in 0.1M sodium-phoshate buffer (pH7.0). The following applies: 37° C., up to 30 min.
Data set [6] addresses T1, thrombin. Nature of the data set: anti-thrombin activity; chromogenic assay (Chromozym TH hydrolysis, apparent dissociation constant Ki'). It is filed as biochemical. The arrangement: 100 μl of human-thrombin prepared at 10 NIH units/ml in aforesaid buffer. The method, then: Anti-thrombin activities were measured by measuring the degree of inhibition of thrombin's hydrolytic activity on synthetic substrate Chromozym TH (Tocylglycil-prolylarginine-4-nitroanilideacetate). This reaction was carried out as follows. […] Here, the molar concentration of aforementioned human-thrombin was determined by the method of active site titration [G. W. Jameson et al., Biochem. J., 131, p107-117 (1973)] using 4-methylunberifenyl-p-guanidinobenzoate as substrate. After the pre-incubation, Chromozym TH (product of Boehringer-Mannheim) was added to a final concentration of 100 μM, and released p-nitroanilide was measured at the wave length of 405 nm, and the initial velocity of the hydrolytic reactions were measured for each of the abovementioned hirudins at various concentrations. From this initial velocity of the hydrolytic reactions, the apparent dissociation constants Ki' were calculated by the method of S. R. Stone et al. [Biochemistry, 25, p4622-4628 (1986)].

With `CC[C@H](C)[C@H](NC(=O)[C@@H]1CCCN1C(=O)[C@H](CCC(=O)O)NC(=O)[C@H](Cc1ccccc1)NC(=O)[C@H](CC(=O)O)NC(=O)CNC(=O)CCC(=O)O)C(=O)N1CCC[C@H]1C(=O)N[C@@H](CCC(=O)O)C(=O)N[C@@H](Cc1ccc(OS(=O)(=O)O)cc1)C(=O)N[C@@H](Cc1ccc(OS(=O)(=O)O)cc1)C(=O)N[C@@H](CC(C)C)C(=O)N[C@@H](CCC(N)=O)C(=O)O` [Sulfated form of (C), Suc--Gly--Asp--Phe--Glu--Pro--Ile--Pro--Glu--Tyr(SO3 H)--Tyr(SO3 H)--Leu--Gln--OH] (Suc-GDFEPIPE[sY][sY]LQ-OH), the values for the Score at thrombin [1] (20 mg/kg i.v. 5 min before thrombin 15 NIH units/10 g), on thrombin [1] (50 mg/kg i.v. 5 min before thrombin 15 NIH units/10 g) and on thrombin [1] (100 mg/kg i.v. 5 min before thrombin 15 NIH units/10 g) were 1.2, 0.8 and 0.6, respectively. The Bleeding time in data set [2] (10 mg/kg via tail vein) worked out at 277.5 ± 31.5 s; in data set [2] (20 mg/kg via tail vein), 366.0 ± 23.0 s; in data set [2] (50 mg/kg via tail vein), 432.0 ± 33.3 s. The Potency on thrombin [3] (calculated using the definition that HV-1 (54-65) potency is 1) is recorded as 88.94. For the same compound, on thrombin [3] (concentration corresponding to 50 thrombin units, human-thrombin 10 NIH units/ml, human-fibrinogen 6 mg/ml, read-out: 50% Inhibition Concentration (converted)), the IC50 is 42.9 nM.
For GDFEEIPYYYLQ, the cleaved bond result in the data set on α-chymotrypsin is “Tyr-Tyr”.
For “Gly--Asp--Phe--Glu--Glu--Ile--Pro--Glu--Tyr--Tyr(SO3 H)--Leu--Gln”, the cleaved bond result in data set [4] is on record as “Glu-Tyr”. Besides, in data set [5], the cleaved bond entry was “Leu-Gln; also recorded: Tyr(SO3 H)-Leu” and the not cleaved entry is recorded as “no Tyr was released (30 min.)”.
Take “Val--Val--Tyr--Thr--Asp--Cys--Thr--Glu--Ser--Gly--Gln--Asn--Leu--Cys--Leu--Cys--Glu--Gly--Ser--Asn--Val--Cys--Gly--Gln--Gly--Asn--Lys--Cys--Ile--Leu--Gly--Ser--Asp--Gly--Glu--Lys--Asn--Gln--Cys--Val--Thr--Gly--Glu--Gly--Thr--Pro--Lys--Pro--Gln--Ser--His--Asn--Asp--Gly--Asp--Phe--Glu--Glu--Ile--Pro--Tyr--Tyr--Tyr(SO3 H)--Leu--Gln [Sulfated form of hirudin HV-17 peak 2]”: on thrombin [6] (apparent dissociation constant, 350 pM human-thrombin, 100 μM Chromozym TH, 37° C.), the Ki was 0.0043 nM. At thrombin [6] (relative to hirudin HV-1 = 1), the Potency came to 1.5.
